In patent publication US20250223301A1, “KINASE INHIBITORS, PREPARATION METHODS AND USES THEREOF” (InventisBio Co., Ltd., priority 2022, published 2025):

Key:
DGKz = DGKz (Homo sapiens (Human), UniProt Q13574); assay: DGK ADP-Glo kinase assay (DGKz); type: biochemical; conditions: 5 nM DGKz, 15 uM ATP
Description: Luminescence was recorded using an Tecan SPARK microplate reader.

DGKa = DGKa (Homo sapiens (Human), UniProt P23743); assay: biochemical;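 note: biochemical DGK kinase assay, ADP-Glo luminescence from ADP made by phosphorylating 1,2-dioleoyl-sn-glycerol, 20 min compound preincubation then 40 min reaction at 25 °C, 1% DMSO control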
Chain of DGKa (P23743 whole entry): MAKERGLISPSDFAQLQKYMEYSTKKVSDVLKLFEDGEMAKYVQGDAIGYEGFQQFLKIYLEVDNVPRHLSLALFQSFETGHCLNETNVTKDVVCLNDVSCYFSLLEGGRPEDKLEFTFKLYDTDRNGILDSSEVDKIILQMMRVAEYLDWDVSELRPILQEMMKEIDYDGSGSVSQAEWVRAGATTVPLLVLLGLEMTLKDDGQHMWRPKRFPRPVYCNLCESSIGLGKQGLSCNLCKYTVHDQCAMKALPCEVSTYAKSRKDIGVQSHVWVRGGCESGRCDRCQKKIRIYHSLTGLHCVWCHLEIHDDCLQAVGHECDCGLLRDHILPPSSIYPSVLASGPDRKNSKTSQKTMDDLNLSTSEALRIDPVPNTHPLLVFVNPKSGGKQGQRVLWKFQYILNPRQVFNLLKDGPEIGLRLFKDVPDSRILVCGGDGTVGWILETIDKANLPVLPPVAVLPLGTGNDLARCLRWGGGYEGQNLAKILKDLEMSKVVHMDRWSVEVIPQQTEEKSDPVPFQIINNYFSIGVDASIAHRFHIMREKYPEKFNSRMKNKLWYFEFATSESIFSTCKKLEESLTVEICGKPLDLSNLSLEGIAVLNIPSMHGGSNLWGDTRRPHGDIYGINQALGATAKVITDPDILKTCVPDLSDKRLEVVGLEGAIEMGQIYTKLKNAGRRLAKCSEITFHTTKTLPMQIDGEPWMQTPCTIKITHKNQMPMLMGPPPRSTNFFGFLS

Chain of DGKz (Q13574 whole entry): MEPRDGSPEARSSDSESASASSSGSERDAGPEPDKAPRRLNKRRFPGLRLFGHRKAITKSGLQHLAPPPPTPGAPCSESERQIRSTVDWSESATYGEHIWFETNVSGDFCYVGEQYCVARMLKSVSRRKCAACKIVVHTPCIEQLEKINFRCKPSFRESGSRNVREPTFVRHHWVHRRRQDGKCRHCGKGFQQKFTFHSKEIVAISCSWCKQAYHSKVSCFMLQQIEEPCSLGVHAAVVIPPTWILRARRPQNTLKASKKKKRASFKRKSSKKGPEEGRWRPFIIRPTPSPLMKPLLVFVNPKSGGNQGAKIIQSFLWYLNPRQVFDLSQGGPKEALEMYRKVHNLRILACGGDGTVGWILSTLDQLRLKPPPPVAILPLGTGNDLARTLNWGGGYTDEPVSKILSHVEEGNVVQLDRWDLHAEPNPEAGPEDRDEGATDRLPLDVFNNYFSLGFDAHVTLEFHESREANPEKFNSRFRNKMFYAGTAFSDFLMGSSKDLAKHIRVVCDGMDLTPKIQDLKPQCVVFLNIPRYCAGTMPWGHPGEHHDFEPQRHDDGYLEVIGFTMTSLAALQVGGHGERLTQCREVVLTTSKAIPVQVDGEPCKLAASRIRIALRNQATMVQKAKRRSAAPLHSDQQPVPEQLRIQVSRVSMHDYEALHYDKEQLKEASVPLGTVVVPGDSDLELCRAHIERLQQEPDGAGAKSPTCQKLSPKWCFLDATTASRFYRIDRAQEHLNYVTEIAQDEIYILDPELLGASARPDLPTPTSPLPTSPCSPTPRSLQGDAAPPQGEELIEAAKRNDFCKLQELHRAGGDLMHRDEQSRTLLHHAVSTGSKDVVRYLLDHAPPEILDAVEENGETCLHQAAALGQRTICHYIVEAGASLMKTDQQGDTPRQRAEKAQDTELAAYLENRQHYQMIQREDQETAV

Row | Structure (SMILES) | IC50 (DGKz) | IC50 (DGKa)
1 | CC[C@@H]1C[C@@]2(CCN1c1nc(=O)n(C)c3ccc(C#N)nc13)CC(c1ccc(OC(F)(F)F)cc1)=NO2 (single isomer, unassigned) [Compound 75] | 660 nM | 253 nM
2 | CC[C@H]1CN([C@H](CC)c2ccc(OC(F)(F)F)cc2)[C@H](CC)CN1c1nc2nncn2c2ccc(C#N)nc12 (stereo in doubt) [Compound 101] | 235 nM | 11 nM
3 | CC[C@H]1CN([C@H](CC)c2ccc(S(F)(F)(F)(F)F)cc2)[C@H](CC)CN1c1nc2nncn2c2ccc(C#N)nc12 [Compound 87] | 93 nM | 2 nM
4 | CC[C@H]1CN([C@H](CC)c2ccc(S(F)(F)(F)(F)F)cc2)[C@H](CC)CN1c1nc(=O)n2c3c(cc(C#N)nc13)OCC2 (stereo in doubt) [Compound 79] | 333 nM | 111 nM
5 | CC[C@H]1CN([C@H](CC)c2ccc(S(F)(F)(F)(F)F)cc2)[C@H](CC)CN1c1nc(=O)n(C)c2ccc(C#N)nc12 [Compound 29] | 55 nM | 14 nM
6 | CC[C@@H]1CN(c2nc3nncn3c3ccc(C#N)nc23)[C@@H](C)CN1[C@@H](CC)c1ccc(SC(F)(F)F)cc1 (stereo in doubt) [Compound 66] | 53 nM | 4 nM
7 | CC[C@@H]1CN(c2nc3nncn3c3ccc(C#N)nc23)[C@@H](C)CN1[C@H](CC)c1ccc(SC(F)(F)F)cc1 (stereo in doubt) [Compound 71] | 236 nM | 21 nM
8 | CC[C@@H]1CN(c2nc3nncn3c3ccc(C#N)nc23)[C@@H](C)CN1[C@H](CC)c1ccc(C(F)(F)F)cc1 (stereo in doubt) [Compound 82] | 454 nM | 2 nM
9 | CC[C@@H]1CN(c2nc3nncn3c3ccc(C#N)nc23)[C@@H](C)CN1[C@@H](CC)c1ccc(S(F)(F)(F)(F)F)cc1 (stereo in doubt) [Compound 80] | 27 nM | 12 nM
10 | CC[C@H]1CN([C@@H](CC)c2ccc(SC(F)(F)F)cc2)[C@H](CC)CN1c1nc2nncn2c2ccc(C#N)nc12 (stereo in doubt) [Compound 68] | 103 nM | 5 nM
11 | CC[C@@H]1CN(c2nc3nncn3c3ccc(C#N)nc23)[C@@H](CC)CN1C(=O)Cc1ccc(C(F)(F)F)cc1 [Compound 85] | 770 nM | 18 nM
12 | CC[C@H]1C[C@]2(CCN1c1nc(=O)n(C)c3ccc(C#N)nc13)CC(c1ccc(OC(F)(F)F)cc1)=NO2 (single isomer, unassigned) [Compound 74] | 1570 nM | 10 nM
13 | CC[C@H]1CN([C@H](CC)c2ccc(SC(F)(F)F)cc2)[C@H](CC)CN1c1nc2nncn2c2ccc(C#N)nc12 (stereo in doubt) [Compound 69] | 346 nM | 10 nM
14 | CC[C@H]1CN([C@H](CC)c2cccc(C(F)(F)F)c2)[C@H](CC)CN1c1nc2nncn2c2ccc(C#N)nc12 (stereo in doubt) [Compound 106] | 555 nM | 24 nM
15 | CC[C@@H]1CN2c3c(c(=O)n(C)c4ccc(C#N)nc34)OC[C@@H]2CN1[C@H](CC)c1ccc(SC(F)(F)F)cc1 [Compound 124] | 114 nM | 6 nM
16 | CC[C@H]1CN([C@@H](c2ccc(SC(F)(F)F)cc2)c2nc(C3CC3)cs2)[C@H](CC)CN1c1nc(=O)n(C)c2ccc(C#N)nc12 [Compound 58] | 367 nM | 9 nM
17 | CC[C@H]1C[C@@H](c2nc3cc(C)ccc3o2)CCN1c1nc(=O)n(C)c2cc(O[C@@H]3CCOC3)c(Cl)cc12 (single isomer, unassigned) [Compound 94] | 1300 nM | 140 nM
18 | CC[C@H]1CN([C@H]2CCCCc3cc(C(F)(F)F)ccc32)[C@H](CC)CN1c1nc(=O)n(C)c2ccc(C#N)nc12 [Compound 44] | 315 nM | 40 nM
19 | CC[C@@H]1C[C@H](Oc2ccc(OC(F)(F)F)cc2)CCN1c1nc(=O)n(C)c2ccc(C#N)nc12 [Compound 16] | 58 nM | 926 nM
20 | CC[C@@H]1CN(c2nc(=O)n(C)c3ccc(C#N)nc23)[C@@H](C)CN1[C@@H](CC)c1ccc(S(F)(F)(F)(F)F)cc1 (stereo in doubt) [Compound 60] | 28 nM | 83 nM
21 | CC[C@H]1CN([C@H](CC)c2cccc(S(F)(F)(F)(F)F)c2)[C@H](CC)CN1c1nc(=O)n(C)c2ccc(C#N)nc12 (stereo in doubt) [Compound 56] | 131 nM | 415 nM
22 | CC[C@H]1C[C@@H](c2nc3cc(C)ccc3o2)CCN1c1nc(=O)n(C)c2cc(O[C@H]3CCOC3)c(Cl)cc12 (stereo in doubt) [Compound 93] | 130 nM | 12 nM
23 | CC[C@H]1CN([C@H](c2ccc(S(F)(F)(F)(F)F)cc2)C2CC2)[C@H](CC)CN1c1nc(=O)n(C)c2ccc(C#N)nc12 (stereo in doubt) [Compound 117] | 200 nM | 18 nM
24 | CC[C@@H]1CN(c2nc(=O)n(C)c3ccc(C#N)nc23)[C@@H](C)CN1[C@H](CC)c1ccc(S(F)(F)(F)(F)F)cc1 (stereo in doubt) [Compound 61] | 180 nM | 128 nM

Row | Structure (SMILES) | IC50 (DGKz) | IC50 (DGKa)
25 | CC[C@H]1C[C@H](c2nc3cc(C)ccc3o2)CCN1c1nc(=O)n(C)c2cc(OC3CCOC3)c(Cl)cc12 (single isomer, unassigned) [Compound 97] | 6 nM | 5 nM
26 | Cc1ccc2oc(C3CCN(c4nc(=O)n(C)c5cc(O[C@H]6CCOC6)c(Cl)cc45)CC3)nc2c1 [Compound 33] | 60 nM | 2 nM
27 | CC[C@@H]1CN(c2nc(=O)n(C)c3ccc(C#N)nc23)[C@@H](C)CN1C(c1ccc(S(F)(F)(F)(F)F)cc1)c1nc(C2CC2)no1 (stereo partly shown) [Compound 65] | 59 nM | 14 nM
28 | CC[C@H]1CN([C@@H](C)c2ccc(S(F)(F)(F)(F)F)cc2)[C@H](CC)CN1c1nc(=O)n(C)c2ccc(C#N)nc12 (stereo in doubt) [Compound 62] | 132 nM | 35 nM
29 | CC[C@H]1CN([C@H](C)c2ccc(S(F)(F)(F)(F)F)cc2)[C@H](CC)CN1c1nc(=O)n(C)c2ccc(C#N)nc12 (stereo in doubt) [Compound 63] | 639 nM | 16 nM
30 | CC[C@H]1CN([C@H](C)c2ccc(SC(F)(F)F)cc2)[C@H](CC)CN1c1nc2nncn2c2ccc(C#N)nc12 (stereo in doubt) [Compound 52] | 499 nM | 5 nM
31 | CC[C@@H]1CN(c2nc3nncn3c3ccc(C#N)nc23)[C@@H](C)CN1[C@@H](CC)c1ccc(C(F)(F)F)cc1 (stereo in doubt) [Compound 81] | 16 nM | 6 nM
32 | CC[C@H]1CN([C@H](c2ccc(SC(F)(F)F)cc2)c2nc(C3CC3)cs2)[C@H](CC)CN1c1nc(=O)n(C)c2ccc(C#N)nc12 [Compound 57] | 607 nM | 24 nM
33 | CC[C@H]1CN([C@H](c2ccc(SC(F)(F)F)cc2)c2nc(C3CC3)no2)[C@H](CC)CN1c1nc(=O)n(C)c2ccc(C#N)nc12 (stereo in doubt) [Compound 70] | 53 nM | 3 nM
34 | CC[C@@H]1C[C@H](c2nc3cc(C)ccc3o2)CCN1c1nc(=O)n(C)c2cc(O[C@@H]3CCOC3)c(Cl)cc12 [Compound 92] | 6 nM | 227 nM
35 | CC[C@H]1CN([C@@H](C)c2ccc(S(F)(F)(F)(F)F)cc2)[C@H](CC)CN1c1nc2nncn2c2ccc(C#N)nc12 (stereo in doubt) [Compound 88] | 38 nM | 18 nM
36 | N#Cc1cc2c3c(n1)c(N1CCC4(CC1)CC(c1ccc(OC(F)(F)F)cc1)=NO4)nc(=O)n3CCO2 [Compound 59] | 162 nM | 28 nM
37 | CC[C@@H]1CN(c2nc3nncn3c3ccc(C#N)nc23)[C@@H](CC)CN1C(=O)c1ccc(C(F)(F)F)cc1 [Compound 84] | 1160 nM | 9 nM
38 | Cn1c(=O)nc(N2CCCc3c(C#CC4CC4)cccc32)c2nc(C#N)ccc21 [Compound 39] | 2050 nM | 1 nM
39 | CC[C@H]1CN([C@H](C)c2ccc(S(F)(F)(F)(F)F)cc2)[C@H](CC)CN1c1nc2nncn2c2ccc(C#N)nc12 (stereo in doubt) [Compound 89] | 116 nM | 10 nM
40 | CC[C@H]1CN([C@@H](CC)c2ccc(S(F)(F)(F)(F)F)cc2)[C@H](CC)CN1c1nc(=O)n2c3c(cc(C#N)nc13)OCC2 (stereo in doubt) [Compound 83] | 124 nM | 23 nM
41 | CC[C@@H]1CN2c3c(c(=O)n(C)c4ccc(C#N)nc34)OC[C@@H]2CN1[C@@H](CC)c1ccc(SC(F)(F)F)cc1 [Compound 123] | 798 nM | 78 nM
42 | CC[C@H]1CN([C@@H](CC)c2cccc(C(F)(F)F)c2)[C@H](CC)CN1c1nc2nncn2c2ccc(C#N)nc12 (stereo in doubt) [Compound 105] | 29 nM | 4 nM
43 | CC[C@H]1CN([C@H](CC)c2ccc(C(F)(F)F)nc2)[C@H](CC)CN1c1nc2nncn2c2ccc(C#N)nc12 (stereo in doubt) [Compound 112] | 183 nM | 11 nM
44 | CC[C@@H]1CN(c2nc(=O)n(C)c3ccc(C#N)nc23)[C@@H](C)CN1[C@H](c1ccc(F)cc1)c1ccc(SC(F)(F)F)cn1 [Compound 73] | 58 nM | 15 nM
45 | CC[C@H]1CN([C@@H](C)c2ccc(SC(F)(F)F)cc2)[C@H](CC)CN1c1nc2nncn2c2ccc(C#N)nc12 (stereo in doubt) [Compound 51] | 50 nM | 58 nM
46 | CC[C@H]1CN([C@@H](c2ccc(S(F)(F)(F)(F)F)cc2)C2CC2)[C@H](CC)CN1c1nc(=O)n(C)c2ccc(C#N)nc12 (stereo in doubt) [Compound 118] | 610 nM | 22 nM
47 | Cc1ccc2oc(C3CCN(c4nc(=O)n(C)c5cc(O[C@@H]6CCOC6)c(Cl)cc45)CC3)nc2c1 [Compound 32] | > 10000 nM | 9 nM
